Data taken from US7700832B2 (priority 2006, dated 2010).
“Also recorded” adds a separate entry of the source. Where two headings read alike, the source gives them in different places.

How the values were obtained:
Type in all cases: cell-based
[1] = test system: Fusarium verticillioides (FVE)
[2] = test system: Fusarium graminearum (FGR); conditions: for antifungal activity against FGR: polypeptide, standard plate assay, 4,000 spores per mL, ¼× potato dextrose broth, 28° C., 24 to 48 hours, scored with inverted microscope
[3] = test system: Colletotrichum graminicola (CGR); conditions: polypeptide, standard plate assay, 4,000 spores per mL, ¼× Czapec-Dox V8, 28° C., 24 to 48 hours, scored with inverted microscope
Diplodia maydis (DMA) = conditions: polypeptide, standard plate assay, 6,000 spores per mL, ¼× potato dextrose broth, 28° C., 24 to 48 hours, scored with inverted microscope

| Substance | antifungal activity against FVE [1] | antifungal activity against FGR (HPLC fraction screen) ([2]; dried HPLC fractions, 4,000 spores/mL in ¼× potato dextrose broth, 27° C. for 24 hours) | antifungal activity against FGR [2] | antifungal activity against FGR ([2]; listed as SEQ ID NO: 1) | antifungal activity against CGR [3] | antifungal activity against CGR ([3]; listed as SEQ ID NO: 1) | antifungal activity against DMA (Diplodia maydis (DMA)) | antifungal activity against DMA (Diplodia maydis (DMA); listed as SEQ ID NO: 1) | antifungal activity against FVE (HPLC fraction screen) [1] |
| --- | --- | --- | --- | --- | --- | --- | --- | --- | --- |
| SEQ ID NO:1: mature antifungal polypeptide LB-09812, 33 amino acids, from Penicillium glandicola fermentation broth; also expressed in E. coli and HPLC-purified (ALHNSCSHPRCFNHAHCLTYSHCHVCSSRKRCL; PEPTIDE (1)...(33) Predicted mature LB-09812 peptide; listed as Penicillium glandicola) | exhibited antifungal activity; also recorded: display antifungal activity | found to have activity | display antifungal activity | exhibited antifungal activity | display antifungal activity | exhibited antifungal activity | display antifungal activity | exhibited antifungal activity | – |
| SEQ ID NO:3: mature antifungal polypeptide LB-12922 isolated from Penicillium citreonigrum fermentation broth (LSCYPSCMQNYCSHPRCFLHATCLSYSHCHVCGTRKVCL; PEPTIDE (1)...(39) Predicted mature LB-12922 peptide; listed as Penicillium citreonigrum) | display antifungal activity | – | display antifungal activity | – | display antifungal activity | – | display antifungal activity | – | found to have activity |
